Reference: PubChem BioAssay (NCI)
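Here, GI50 denotes the concentration required for 50% inhibition of growth. TGI: total growth inhibition.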

Legend:
Test in all cases: NCI tumour cell line growth inhibition, 384-well format
786-0 renal = tested on: 786-0 renal
BT-549 breast = tested on: BT-549 breast
HS 578T breast = tested on: HS 578T breast
KM12 colon = tested on: KM12 colon
LOX IMVI melanoma = tested on: LOX IMVI melanoma
MDA-MB-231 breast = tested on: MDA-MB-231 breast
NCI-H226 lung = tested on: NCI-H226 lung
NCI-H322M lung = tested on: NCI-H322M lung
SF-268 CNS = tested on: SF-268 CNS
SK-MEL-28 melanoma = tested on: SK-MEL-28 melanoma
SK-MEL-5 melanoma = tested on: SK-MEL-5 melanoma
T-47D breast = tested on: T-47D breast
UO-31 renal = tested on: UO-31 renal

Row | Structure (SMILES) | GI50 (786-0 renal) [µM] | TGI (786-0 renal) [µM] | GI50 (BT-549 breast) [µM] | TGI (BT-549 breast) [µM] | GI50 (HS 578T breast) [µM] | TGI (HS 578T breast) [µM] | GI50 (KM12 colon) [µM] | TGI (KM12 colon) [µM] | GI50 (LOX IMVI melanoma) [µM] | TGI (LOX IMVI melanoma) [µM] | GI50 (MDA-MB-231 breast) [µM] | TGI (MDA-MB-231 breast) [µM] | GI50 (NCI-H226 lung) [µM] | TGI (NCI-H226 lung) [µM] | GI50 (NCI-H322M lung) [µM] | TGI (NCI-H322M lung) [µM] | GI50 (SF-268 CNS) [µM] | TGI (SF-268 CNS) [µM] | GI50 (SK-MEL-28 melanoma) [µM] | TGI (SK-MEL-28 melanoma) [µM] | further results
1 | N#CCC1(n2cc(-c3ncnc4[nH]ccc34)cn2)CN(C2CCN(C(=O)c3ccnc(C(F)(F)F)c3F)CC2)C1 | > 96.4 | > 100 | 50.4 | > 100 | 30.9 | 92.9 | 42.3 | > 100 | > 100 | > 100 | 45.8 | > 100 | 33.5 | > 82.9 | > 100 | > 100 | > 39.8 | > 69.3 | > 100 | > 100 | GI50 (SK-MEL-5 melanoma): > 41.9 µM; TGI (SK-MEL-5 melanoma): > 70.7 µM; GI50 (T-47D breast): 49.6 µM; TGI (T-47D breast): > 100 µM; GI50 (UO-31 renal): 72.5 µM; TGI (UO-31 renal): > 100 µM
2 | CNCc1ccc(-c2[nH]c3cc(F)cc4c3c2CCNC4=O)cc1 | 7.97 | 21.3 | 11.8 | 24.2 | 10.4 | 22.4 | 15.7 | 30.2 | 13 | 26 | 8.58 | 21.8 | 7.9 | 21.9 | 17.2 | 32.4 | 14.1 | 29.1 | 15.2 | 28.8 | GI50 (SK-MEL-5 melanoma): 6.05 µM; TGI (SK-MEL-5 melanoma): 12.1 µM; GI50 (T-47D breast): 16.9 µM; TGI (T-47D breast): 36.9 µM; GI50 (UO-31 renal): 12.1 µM; TGI (UO-31 renal): 28.5 µM
